The values that follow are results of earlier work, collected in PubChem BioAssay AID1259409 (Chemical Carcinogenesis Research Information System (CCRIS), 2018).

For the data set, the system named is rodent chemically induced tumor inhibition, incidence and multiplicity. As to the kind of experiment: CCRIS tumor inhibitor studies. Conditions: Promoter: NONE USED; for outcome: Dose [Inhibitor]: 3 MG/KG BW IN 0.1 ML CORN OIL 3/WK FOR DURATION OF EXPERIMENT BEGINNING 15 D POST CARCINOGEN DOSE, Target Tissue: Type of Lesion: MAMMARY GLAND: ADENOCARCINOMA, FIBROADENOMA, Dose [Carcinogen]: 5 OR 10 MG IN 0.5 ML CORN OIL ONCE.

Take `CC(C)C[C@H]1C(=O)N2CCC[C@H]2[C@]2(O)O[C@](NC(=O)[C@@H]3C=C4c5cccc6[nH]c(Br)c(c56)C[C@H]4N(C)C3)(C(C)C)C(=O)N12`: the “tumour outcome (control, treated, inhibition, significance)” value runs as follows: (Carcinogen: DIMETHYLBENZ[A]ANTHRACENE, 57-97-6, Dose [Inhibitor]: 3 MG/KG BW (0.1 ML) IN CORN OIL 5/WK OR 6/WK FOR 2 WK (11 INJECTIONS) BEGINNING 15 D PRIOR TO CARCINOGEN DOSE AT 35 D OF, Route [Inhibitor]: SUBCUTANEOUS, Species: RAT, Strain/Sex: SPRAGUE-DAWLEY/FEMALE, Target Tissue: Type of Lesion: MAMMARY GLAND: TUMOR, Dose [Carcinogen]: 5 MG/RAT IN CORN OIL ONCE) 13/22 (59%), 11/24 (46%), 22%, not significant; (Carcinogen: DIMETHYLBENZ[A]ANTHRACENE, 57-97-6, Dose [Inhibitor]: 400 UG/100 G BW TOGETHER WITH 25 UG TAMOXIFEN/100 G BW 1/D FOR 20 WK BEGINNING 3 D POST CARCINOGEN DOSE (STUDY DURATION:, Route [Inhibitor]: SUBCUTANEOUS, Species: RAT, Strain/Sex: SPRAGUE-DAWLEY/FEMALE, Target Tissue: Type of Lesion: MAMMARY GLAND: CARCINOMA, Dose [Carcinogen]: 5 MG ONCE AT 53 D OF AGE) 85%, 21%, 75%, p<0.001 at 20 wk; (Carcinogen: DIMETHYLBENZ[A]ANTHRACENE, 57-97-6, Dose [Inhibitor]: 400 UG/100 G BW TOGETHER WITH 25 UG TAMOXIFEN/100 G BW 1/D FOR 20 WK BEGINNING 3 D POST CARCINOGEN DOSE (STUDY DURATION:, Route [Inhibitor]: SUBCUTANEOUS, Species: RAT, Strain/Sex: SPRAGUE-DAWLEY/FEMALE, Target Tissue: Type of Lesion: MAMMARY GLAND: CARCINOMA, Dose [Carcinogen]: 10 MG ONCE AT 53 D OF AGE) 90%, 10%, 89%, p<0.001 at 12 wks; (Carcinogen: DIMETHYLBENZ[A]ANTHRACENE, 57-97-6, Dose [Inhibitor]: 400 UG/100 G BW TOGETHER WITH 25 UG TAMOXIFEN/100 G BW 1/D FOR 26 WK BEGINNING 3 D POST CARCINOGEN DOSE (STUDY DURATION:, Route [Inhibitor]: SUBCUTANEOUS, Species: RAT, Strain/Sex: SPRAGUE-DAWLEY/FEMALE, Target Tissue: Type of Lesion: MAMMARY GLAND: CARCINOMA, Dose [Carcinogen]: 20 MG ONCE AT 53 D OF AGE) 100%, 12%, 88%, p<0.001 at 11 wks; (Carcinogen: DIMETHYLBENZ[A]ANTHRACENE, 57-97-6, Dose [Inhibitor]: 400 UG/100 G BW TOGETHER WITH 25 UG TAMOXIFEN/100 G BW 1/D PLUS 68 MG RETINYL ACETATE/KG OF DIET, BEGINNING 3 D POST CAR, Route [Inhibitor]: SUBCUTANEOUS, Species: RAT, Strain/Sex: SPRAGUE-DAWLEY/FEMALE, Target Tissue: Type of Lesion: MAMMARY GLAND: CARCINOMA, Dose [Carcinogen]: 20 MG ONCE AT 53 D OF AGE) 100%, 3%, 97%, p<0.001 at 11 wk; (Carcinogen: DIMETHYLBENZ[A]ANTHRACENE, 57-97-6, Dose [Inhibitor]: 400 UG/100 G BW TOGETHER WITH 25 UG TAMOXIFEN/100 G BW 1/D PLUS 204 MG RETINYL ACETATE/KG OF DIET, BEGINNING 3 D POST CA, Route [Inhibitor]: SUBCUTANEOUS, Species: RAT, Strain/Sex: SPRAGUE-DAWLEY/FEMALE, Target Tissue: Type of Lesion: MAMMARY GLAND: CARCINOMA, Dose [Carcinogen]: 10 MG ONCE AT 53 D OF AGE) 90%, 5%, 94%, p<0.001 at 12 wk. For the same molecule, the “tumour outcome (control, treated, inhibition, significance)” value runs as follows: (Carcinogen: DIMETHYLBENZ[A]ANTHRACENE, 57-97-6, Dose [Inhibitor]: 400 UG/100 G BW TOGETHER WITH 25 UG TAMOXIFEN/100 G BW 1/D PLUS 328 MG RETINYL ACETATE/KG DIET BEGINNING 3 D POST CARCIN, Route [Inhibitor]: SUBCUTANEOUS, Species: RAT, Strain/Sex: SPRAGUE-DAWLEY/FEMALE, Target Tissue: Type of Lesion: MAMMARY GLAND: CARCINOMA, Dose [Carcinogen]: 5 MG ONCE AT 53 D OF AGE) 85%, 5%, 94%, p<0.001 at 20 wk; (Carcinogen: ENOVID (NORETHYNODREL WITH MESTRANOL), 8015-30-3, Dose [Inhibitor]: 0.1 MG 1/D FOR 21 MO BEGINNING CONCURRENTLY WITH CARCINOGEN DOSE (STUDY DURATION: 21 MO), Route [Inhibitor]: SUBCUTANEOUS, Species: MOUSE, Strain/Sex: C3H/FEMALE, Target Tissue: Type of Lesion: MAMMARY GLAND: CARCINOMA, Dose [Carcinogen]: 0.1 MG 2/WK FOR 21 MO) 30/100 (30%), 10/100 (10%), 67%, p<0.001; (Carcinogen: ESTRONE, 53-16-7, PROGESTERONE, 57-83-0, Carcinogen: ESTRONE, 53-16-7, PROGESTERONE, 57-83-0, Dose [Inhibitor]: 100 UG 1/D FOR 13 WK BEGINNING CONCURRENTLY WITH CARCINOGEN DOSE (STUDY DURATION: NOT STATED, DATA INDICATES 13 WK), Route [Inhibitor]: SUBCUTANEOUS, Species: MOUSE, Strain/Sex: STRAIN-GR/FEMALE, Target Tissue: Type of Lesion: MAMMARY GLAND: PAPILLARY CARCINOMA, Dose [Carcinogen]: 0.5 MG/L FOR 13 WK IN DRINKING WATER BEGINNING AT 15 WK OF AGE, THEN 30 MG PELLET IMPLANT 1/MO BEGINNING AT 15 WK OF AGE) 58/119 (49%), 34/119 (29%), 41%, p<0.005; (Carcinogen: ISONIAZID, 54-85-3, Dose [Inhibitor]: 5000 PPM IN DIET STARTING 1 WK PRIOR TO ADMINISTRATION OF CARCINOGEN UNTIL END OF EXPERIMENT (STUDY DURATION: APPROXIMAT, Route [Inhibitor]: ORAL, Species: MOUSE, Strain/Sex: SWISS/MALE, FEMALE, Target Tissue: Type of Lesion: LIVER AND LUNG: COMBINED TUMORS, Dose [Carcinogen]: 1.1 MG/D 5 D/WK UNTIL 25 MO OF AGE) 16/29 (55%), 4/20 (20%), 64%, p<o.o5; (Carcinogen: N-METHYL-N'-NITRO-N-NITROSOGUANIDINE, 70-25-7, Dose [Inhibitor]: 0, 0.25 MG/KG AS A SUSPENSION IN OLIVE OIL 1/2 D BEGINNING POST CARCINOGEN DOSE AND CONTINUING FOR DURATION OF STUDY (ST, Route [Inhibitor]: SUBCUTANEOUS, Species: RAT, Strain/Sex: WISTAR/MALE, Target Tissue: Type of Lesion: STOMACH: ADENOCARCINOMA, Dose [Carcinogen]: 50 UG/ML IN DRINKING WATER FOR 25 WK) 12/19 (63%), 12/20 (60%), 5%, not calculated; (Carcinogen: N-METHYL-N'-NITRO-N-NITROSOGUANIDINE, 70-25-7, Dose [Inhibitor]: 0, 0.5 MG/KG AS A SUSPENSION IN OLIVE OIL 1/2 D BEGINNING POST CARCINOGEN DOSE AND CONTINUING FOR DURATION OF STUDY (STU, Route [Inhibitor]: SUBCUTANEOUS, Species: RAT, Strain/Sex: WISTAR/MALE, Target Tissue: Type of Lesion: STOMACH: ADENOCARCINOMA, Dose [Carcinogen]: 50 UG/ML IN DRINKING WATER FOR 25 WK) 12/19 (63%), 10/20 (50%), 21%, not calculated. The outcome by setting is: (Carcinogen: DIMETHYLBENZ[A]ANTHRACENE, 57-97-6, MAINTAINED ON 0.5% FA, Route [Inhibitor]: SUBCUTANEOUS, Species: RAT, Strain/Sex: SPRAGUE-DAWLEY/FEMALE) 34%, 0%, 100%, not calculated (low dose carcinogen); 38%, 18%, 53%, not calculat; (Carcinogen: DIMETHYLBENZ[A]ANTHRACENE, 57-97-6, MAINTAINED ON 20% FAT, Route [Inhibitor]: SUBCUTANEOUS, Species: RAT, Strain/Sex: SPRAGUE-DAWLEY/FEMALE) 56%, 0%, 100%, not calculated (low dose carcinogen); 58%, 19%, 67%, not calculat.
